Experimental data published in patent US20240287046A1, “COMPOUNDS AND RADIOLIGANDS FOR TARGETING NEUROTENSIN RECEPTOR AND USES THEREOF” (Full-Life Technologies HK Limited, priority 2022, published 2024).

Tested on: HT-29 tumor-bearing mice
Assay: Biodistribution of radionuclide labeled complexes in HT-29 tumor-bearing mice
Assay type: in vivo, BALB/c nude mice
Procedure: The BALB/c nude mice (Charles River, Beijing) were utilized to establish the xenografted model for biodistribution study. All animal care and experimental procedure were performed by following the animal protocols approved by the ethics committee of China Institute of Radiation Protection.
Briefly, each mouse was inoculated with approximately 4×10^6 ASPC-1 cells (human pancreatic cancer cell line) or HT-29 cells (human colorectal adenocarcinoma cell line) expressing human NTSR-1 by subcutaneous injection at rear flank. After inoculation, the xenografted tumors were allowed to grow for ˜2-4 weeks till the tumor weight reached to about 0.05 to 0.50 g (0.20 g in average).
Biodistribution studies were performed by administrating the radionuclide labeled test compound at a dose of ˜30-50 μCi (100 μL in 0.9% NaCl, ˜1.11-1.85 MBq, with specific activity 30-250 μCi/nmol) to each animal through tail vein injection.
At different time points after the administration, the mice treated with each compound were euthanized. The tissues and organs of the animals in each group were collected, excised, weighed, and analyzed in a PerkinElmer 2480 WIZARD2γ counter, and the percent injected dose (% ID) and % ID/g of each organ or tissue were calculated.

SMILES: COc1cccc(OC)c1-c1cc(C(=O)NC2(C(=O)O)C3CC4CC(C3)CC2C4)nn1-c1ccc(OCCCN(C)CCCN(C)C(=O)CN2CCN(CC(=O)[O-])CCN(CC(=O)[O-])CCN(CC(=O)[O-])CC2)cc1C(C)C.[177Lu+3] (stereo not drawn) [^177Lu-I-7]
- % ID/g (72 h) Blood (Blood, 72 h): 0.03 ± 0 % ID/g
- % ID/g (120 h) Blood (Blood, 120 h): 0.01 ± 0 % ID/g
- % ID/g (1 h) Femur (Femur, 1 h): 1.95 ± 1.15 % ID/g
- % ID/g (4 h) Femur (Femur, 4 h): 0.56 ± 0.23 % ID/g
- % ID/g (24 h) Femur (Femur, 24 h): 0.11 ± 0.02 % ID/g
- % ID/g (72 h) Femur (Femur, 72 h): 0.06 ± 0.03 % ID/g
- % ID/g (120 h) Femur (Femur, 120 h): 0.07 ± 0.02 % ID/g
- % ID/g (1 h) Heart (Heart, 1 h): 5.28 ± 0.74 % ID/g
- % ID/g (4 h) Heart (Heart, 4 h): 1.31 ± 0.53 % ID/g
- % ID/g (24 h) Heart (Heart, 24 h): 0.16 ± 0.01 % ID/g
- % ID/g (72 h) Heart (Heart, 72 h): 0.11 ± 0.01 % ID/g
- % ID/g (120 h) Heart (Heart, 120 h): 0.05 ± 0.03 % ID/g
- % ID/g (1 h) Intestine (Intestine, 1 h): 2.84 ± 1.07 % ID/g
- % ID/g (4 h) Intestine (Intestine, 4 h): 1.71 ± 0.23 % ID/g
- % ID/g (24 h) Intestine (Intestine, 24 h): 0.66 ± 0.29 % ID/g
- % ID/g (72 h) Intestine (Intestine, 72 h): 0.29 ± 0.23 % ID/g
- % ID/g (120 h) Intestine (Intestine, 120 h): 0.19 ± 0.01 % ID/g
- % ID/g (1 h) Kidney (Kidney, 1 h): 4.41 ± 2.41 % ID/g
- % ID/g (4 h) Kidney (Kidney, 4 h): 1.73 ± 0.79 % ID/g
- % ID/g (24 h) Kidney (Kidney, 24 h): 1.43 ± 1.04 % ID/g
- % ID/g (72 h) Kidney (Kidney, 72 h): 0.7 ± 0.3 % ID/g
- % ID/g (120 h) Kidney (Kidney, 120 h): 0.4 ± 0.15 % ID/g
- % ID/g (1 h) Liver (Liver, 1 h): 4.35 ± 1.78 % ID/g
- % ID/g (4 h) Liver (Liver, 4 h): 2.59 ± 1.08 % ID/g
- % ID/g (24 h) Liver (Liver, 24 h): 0.85 ± 0.38 % ID/g
- % ID/g (72 h) Liver (Liver, 72 h): 0.57 ± 0.21 % ID/g
- % ID/g (120 h) Liver (Liver, 120 h): 0.24 ± 0.04 % ID/g
- % ID/g (1 h) Lung (Lung, 1 h): 4.47 ± 3.31 % ID/g
- % ID/g (4 h) Lung (Lung, 4 h): 1.81 ± 0.77 % ID/g
- % ID/g (24 h) Lung (Lung, 24 h): 0.35 ± 0.14 % ID/g
- % ID/g (72 h) Lung (Lung, 72 h): 0.23 ± 0.01 % ID/g
- % ID/g (120 h) Lung (Lung, 120 h): 0.07 ± 0.02 % ID/g
- % ID/g (1 h) Muscle (Muscle, 1 h): 2.2 ± 1.08 % ID/g
- % ID/g (4 h) Muscle (Muscle, 4 h): 0.44 ± 0.26 % ID/g
- % ID/g (24 h) Muscle (Muscle, 24 h): 0.05 ± 0.03 % ID/g
- % ID/g (72 h) Muscle (Muscle, 72 h): 0.03 ± 0.01 % ID/g
- % ID/g (120 h) Muscle (Muscle, 120 h): 0.04 ± 0.02 % ID/g
- % ID/g (1 h) Pancreas (Pancreas, 1 h): 1.48 ± 0.29 % ID/g
- % ID/g (4 h) Pancreas (Pancreas, 4 h): 0.38 ± 0.17 % ID/g
- % ID/g (24 h) Pancreas (Pancreas, 24 h): 0.07 ± 0.04 % ID/g
- % ID/g (72 h) Pancreas (Pancreas, 72 h): 0.03 ± 0.01 % ID/g
- % ID/g (120 h) Pancreas (Pancreas, 120 h): 0.04 ± 0.01 % ID/g
- % ID/g (1 h) Spleen (Spleen, 1 h): 1.73 ± 1.08 % ID/g
- % ID/g (4 h) Spleen (Spleen, 4 h): 0.71 ± 0.41 % ID/g
- % ID/g (24 h) Spleen (Spleen, 24 h): 0.14 ± 0.03 % ID/g
- % ID/g (72 h) Spleen (Spleen, 72 h): 0.08 ± 0.01 % ID/g
- % ID/g (120 h) Spleen (Spleen, 120 h): 0.1 ± 0.04 % ID/g
- % ID/g (1 h) Stomach (Stomach, 1 h): 2.58 ± 1.00 % ID/g
- % ID/g (4 h) Stomach (Stomach, 4 h): 0.76 ± 0.38 % ID/g
- % ID/g (24 h) Stomach (Stomach, 24 h): 0.14 ± 0.03 % ID/g
- % ID/g (72 h) Stomach (Stomach, 72 h): 0.06 ± 0.01 % ID/g
- % ID/g (120 h) Stomach (Stomach, 120 h): 0.061 ± 0.03 % ID/g
- % ID/g (1 h) Tumor (Tumor, 1 h): 17.04 ± 5.68 % ID/g
- % ID/g (4 h) Tumor (Tumor, 4 h): 16.52 ± 12.39 % ID/g
- % ID/g (24 h) Tumor (Tumor, 24 h): 20.35 ± 2.62 % ID/g
- % ID/g (72 h) Tumor (Tumor, 72 h): 9.3 ± 7.53 % ID/g
- % ID/g (120 h) Tumor (Tumor, 120 h): 6.42 ± 3.46 % ID/g
